Results: US11078198B2 (BRISTOL-MYERS SQUIBB COMPANY, priority 2017, dated 2021)

These compounds were tested against T1, human FXR (Homo sapiens, UniProt Q96RI1) (assay: transient human FXR/Gal4-luciferase reporter assay). Settings: Gal4-hFXR transfected HEK293 reporter cells; relative to 8 μM GW-4064.
T1 construct: expressed in transfected cells; host or cells: HEK293 cells stably carrying a 5xGal4-response-element firefly luciferase reporter, transiently transfected with pcDNA3.1-Gal4-FXR
T1 sequence (Q96RI1 262-486 limits assumed): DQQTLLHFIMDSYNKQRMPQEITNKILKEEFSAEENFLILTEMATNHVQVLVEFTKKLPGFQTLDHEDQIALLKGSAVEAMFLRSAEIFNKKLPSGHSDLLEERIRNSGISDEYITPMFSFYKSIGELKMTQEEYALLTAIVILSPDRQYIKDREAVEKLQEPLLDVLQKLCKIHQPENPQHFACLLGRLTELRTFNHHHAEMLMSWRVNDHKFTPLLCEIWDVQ
Type: cell-based
Outline: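 Transient Gal4-hFXR LBD fusion (pcDNA3.1, Lipofectamine, overnight) expressed in a HEK293 reporter line stably bearing five Gal4 elements upstream of firefly luciferase, grown in charcoal/dextran-stripped FBS. Compound dilutions in DMSO incubated with cells overnight at 37° C, 5% CO2, before luciferase readout.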

In order of rising EC50:
1. CS(=O)(=O)NC(=O)c1cc(OC(F)F)c2cc(N3CCC4(C=C(c5c(-c6ccccc6C(F)(F)F)noc5C5CC5)C4)CC3)ccc2n1 [Example 186, 6-(2-(5-Cyclopropyl-3-(2-(trifluoromethyl)phenyl)isoxazol-4-yl)-7-azaspiro[3.5]non-1-en-7-yl)-4-(difluoromethoxy)-N-(methylsulfonyl)quinoline-2-carboxamide]  13 nM
2. O=C(O)c1cc(F)c2nc(N3CCC4(C=C(c5c(C(F)F)cnn5-c5c(Cl)cncc5Cl)C4)CC3)sc2c1 [Example 216, 2-(2-(1-(3,5-Dichloropyridin-4-yl)-4-(difluoromethyl)-1H-pyrazol-5-yl)-7-azaspiro[3.5]non-1-en-7-yl)-4-fluorobenzo[d]thiazole-6-carboxylic acid]  88 nM
3. Cn1nc(C(=O)O)c2ccc(N3CCC4(C=C(c5c(-c6c(Cl)cccc6Cl)noc5C5CC5)C4)CC3)cc21 [Example 125, 6-(2-(5-Cyclopropyl-3-(2,6-dichlorophenyl)isoxazol-4-yl)-7-azaspiro[3.5]non-1-en-7-yl)-1-methyl-1H-indazole-3-carboxylic acid]  96 nM
4. O=C(O)c1cc(F)c2nc(N3CCC4(CC3)CC(c3c(-c5ccccc5C(F)(F)F)noc3C3CC3)C4)sc2c1 [Example 36, 2-(2-(5-cyclopropyl-3-(2-(trifluoromethyl)phenyl)isoxazol-4-yl)-7-azaspiro[3.5]nonan-7-yl)-4-fluorobenzo[d]thiazole-6-carboxylic acid]  116 nM
5. O=C(NC1CC1)c1cc(F)c2nc(N3CCC4(C=C(c5c(-c6c(Cl)cncc6Cl)noc5C5CC5)C4)CC3)sc2c1 [Example 201, N-Cyclopropyl-2-(2-(5-cyclopropyl-3-(3,5-dichloropyridin-4-yl)isoxazol-4-yl)-7-azaspiro[3.5]non-1-en-7-yl)-4-fluorobenzo[d]thiazole-6-carboxamide]  150 nM
6. O=C(O)c1cc(C(F)(F)F)c2cc(N3CCC4(C=C(c5c(-c6c(F)cccc6Cl)noc5C5CC5)C4)CC3)ccc2n1 [Example 88, 6-(2-(3-(2-Chloro-6-fluorophenyl)-5-cyclopropylisoxazol-4-yl)-7-azaspiro[3.5]non-1-en-7-yl)-4-(trifluoromethyl)quinoline-2-carboxylic acid]  150 nM
7. Cn1cc(C(=O)O)c2ccc(N3CCC4(C=C(c5c(C(F)F)cnn5-c5ccccc5C(F)(F)F)C4)CC3)cc21 [Example 219, 6-(2-(4-(Difluoromethyl)-1-(2-(trifluoromethyl)phenyl)-1H-pyrazol-5-yl)-7-azaspiro[3.5]non-1-en-7-yl)-1-methyl-1H-indole-3-carboxylic acid]  180 nM
8. O=C(O)c1cc(F)c2nc(N3[C@@H]4CC[C@H]3CC3(C=C(c5c(-c6c(Cl)cccc6Cl)noc5C5CC5)C3)C4)sc2c1 (mixture of isomers) [Example 11, 2-(3′-(5-Cyclopropyl-3-(2,6-dichlorophenyl)isoxazol-4-yl)-8-azaspiro[bicyclo[3.2.1]octane-3,1′-cyclobutan]-2′-en-8-yl)-4-fluorobenzo[d]thiazole-6-carboxylic acid]  189 nM
9. O=C(O)c1cc(C(F)(F)F)c2cc(N3CCC4(C=C(c5c(-c6ncccc6Cl)noc5C5CC5)C4)CC3)ccc2n1 [Example 91, 6-(2-(3-(3-Chloropyridin-2-yl)-5-cyclopropylisoxazol-4-yl)-7-azaspiro[3.5]non-1-en-7-yl)-4-(trifluoromethyl)quinoline-2-carboxylic acid]  219 nM
10. O=C(O)c1cc(F)c2nc(N3CCC4(C=C(c5c(C(F)F)cnn5-c5ccccc5OC(F)(F)F)C4)CC3)sc2c1 [Example 217, 2-(2-(4-(Difluoromethyl)-1-(2-(trifluoromethoxy)phenyl)-1H-pyrazol-5-yl)-7-azaspiro[3.5]non-1-en-7-yl)-4-fluorobenzo[d]thiazole-6-carboxylic acid]  230 nM
11. Cn1c(C(=O)O)cc2ccc(N3CCC4(C=C(c5c(-c6c(Cl)cccc6Cl)noc5C5CC5)C4)CC3)cc21 [Example 128, 6-(2-(5-Cyclopropyl-3-(2,6-dichlorophenyl)isoxazol-4-yl)-7-azaspiro[3.5]non-1-en-7-yl)-1-methyl-1H-indole-2-carboxylic acid]  287 nM
12. O=C(O)c1cc(C(F)(F)F)c2cc(N3CCC4(C=C(c5c(-c6ccc(F)cc6Cl)noc5C5CC5)C4)CC3)ccc2n1 [Example 96, 6-(2-(3-(2-Chloro-4-fluorophenyl)-5-cyclopropylisoxazol-4-yl)-7-azaspiro[3.5]non-1-en-7-yl)-4-(trifluoromethyl)quinoline-2-carboxylic acid]  869 nM
13. Cn1c(N2CCC3(C=C(c4c(-c5c(Cl)cccc5Cl)noc4C4CC4)C3)CC2)nc2cc(C(=O)O)ccc21 [Example 25, 2-(2-(5-Cyclopropyl-3-(2,6-dichlorophenyl)isoxazol-4-yl)-7-azaspiro[3.5]non-1-en-7-yl)-1-methyl-1H-benzo[d]imidazole-5-carboxylic acid]  1020 nM
14. COc1cc(C(=O)O)nc2ccc(N3CCC4(C=C(c5c(C6CCCCC6)noc5C5CC5)C4)CC3)cc12 [Example 147, 6-(2-(3-Cyclohexyl-5-cyclopropylisoxazol-4-yl)-7-azaspiro[3.5]non-1-en-7-yl)-4-methoxyquinoline-2-carboxylic acid]  1060 nM
15. O=C(O)c1cnc(N2CCC3(C=C(c4c(-c5ccccc5OC(F)(F)F)noc4C4CC4)C3)CC2)c(F)c1 [Example 27, 6-(2-(5-Cyclopropyl-3-(2-(trifluoromethoxy)phenyl)isoxazol-4-yl)-7-azaspiro[3.5]non-1-en-7-yl)-5-fluoronicotinic acid]  1100 nM
16. Cn1nc(N2CCC3(C=C(c4c(-c5c(Cl)cccc5Cl)noc4C4CC4)C3)CC2)c2ccc(C(=O)O)cc21 [Example 133, 3-(2-(5-Cyclopropyl-3-(2,6-dichlorophenyl)isoxazol-4-yl)-7-azaspiro[3.5]non-1-en-7-yl)-1-methyl-1H-indazole-6-carboxylic acid]  1170 nM
17. COc1cncc(F)c1-c1noc(C2CC2)c1C1=CC2(CCN(c3ccc4nc(C(=O)O)cc(C(F)(F)F)c4c3)CC2)C1 [Example 97, 6-(2-(5-Cyclopropyl-3-(3-fluoro-5-methoxypyridin-4-yl)isoxazol-4-yl)-7-azaspiro[3.5]non-1-en-7-yl)-4-(trifluoromethyl)quinoline-2-carboxylic acid]  1940 nM
18. COc1cc(N2CCC3(C=C(c4c(-c5c(Cl)cncc5Cl)noc4C4CC4)C3)CC2)ncc1C(=O)O [Example 76, 6-(2-(5-Cyclopropyl-3-(3,5-dichloropyridin-4-yl)isoxazol-4-yl)-7-azaspiro[3.5]non-1-en-7-yl)-4-methoxynicotinic acid]  2150 nM
19. CCOc1cc(C(=O)O)nc2ccc(N3CCC4(C=C(c5c(C6CCCCC6)noc5C5CC5)C4)CC3)cc12 [Example 167, 6-(2-(3-Cyclohexyl-5-cyclopropylisoxazol-4-yl)-7-azaspiro[3.5]non-1-en-7-yl)-4-ethoxyquinoline-2-carboxylic acid]  3100 nM
20. O=C(O)c1cccc(OC2CCC3(CC2)CC(O)(c2c(-c4c(Cl)cccc4Cl)noc2C2CC2)C3)c1 (centres unmarked) [Example 207, 3-((2-(5-Cyclopropyl-3-(2,6-dichlorophenyl)isoxazol-4-yl)-2-hydroxyspiro[3.5]nonan-7-yl)oxy)benzoic acid]  4470 nM
